Source: patent publication US7557133B2, “Caspase inhibitors containing isoxazoline ring” (LG Life Sciences Ltd., priority 2003, dated 2009)

Legend:
[1] = biological target: T1, caspase-8 (Homo sapiens, UniProt Q14790); experiment: Caspase-8 inhibitory effect (fluorescent substrate AcDEVD-AFC); format: biochemical; conditions: pH 7.5; 25° C., 50 μM AcDEVD-AFC, 2.1 nM caspase-8; read-out: Caspase-8 Kobs/[I] (converted)
T1 construct: p10 and p20 subunits (Thornberry, N. A. et al, Nature, 1992, 356, 768) were expressed in E. coli; made in house; host or cells: E. coli
T1 sequence (Q14790 217-374 limits assumed, species assumed): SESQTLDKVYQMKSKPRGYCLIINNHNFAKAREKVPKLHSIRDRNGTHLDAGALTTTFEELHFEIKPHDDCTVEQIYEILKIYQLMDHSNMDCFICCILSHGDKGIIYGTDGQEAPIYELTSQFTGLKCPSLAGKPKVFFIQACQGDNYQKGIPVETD
T1 sequence (Q14790 385-479 limits assumed, species assumed): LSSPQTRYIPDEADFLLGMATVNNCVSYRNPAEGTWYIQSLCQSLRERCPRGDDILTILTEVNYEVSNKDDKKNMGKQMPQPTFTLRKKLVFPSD
Method: (§1) Caspase-1 and caspase-8 known as cysteine proteases in the form of α2β2 were expressed, purified, and activated by modifying a method known in Thornberry, N. A. et al, Nature, 1992, 356, 768. Thornberry, N. A. Methods in Enzymology, 1994, 244, 615. Walker, N. P. C. et al. Cell, 1994, 78, 343, and caspase-9 was also purified by a similar method, and the inhibitory activity against them was tested. Briefly describing, p10 and p20 subunits (Thornberry, N. A. et al, Nature, 1992, 356, 768) were expressed in E. coli and purified by nickel column and anionic exchange chromatography to give caspase-1, caspase-8 and caspase-9. The fluorescent substrate AcYVAD-AFC for thus obtained caspase-1, AcDEVD-AFC for caspase-8, and AcLEHD-AFC for caspase-9 were used for determining specific activity of the synthesized inhibitors. The enzyme reaction was carried out at 25° C. with various concentrations of the inhibitors in a buffer solution containing 50 mM HEPES(pH 7.50), 10% (w/v) sucrose, 0.1% (w/v) CHAPS, 100 mM NaCl, 1 mM EDTA, and 10 mM DTT in the presence of 50 μM AcYVAD-AFC for 10 nM caspase-1, 50 μM AcDEVD-AFC for 2.1 nM caspase-8, and 150 μM AcLEHD-AFC for 200 nM caspase-9. The inhibitory constants Ki and Kobs of the inhibitors were determined by measuring the reaction velocity with the time lapse using a fluorescent spectrometer and by obtaining the initial rate constant. Ki was calculated from the Lineweaver Burk Plot, and Kobs from the following Equation 1. Kobs=−ln(1−At/Aoo)/t Equation 1
(§2) At means cleavate rate (%) at time t, and
(§3) Aoo means the maximum cleavage rate (%).
(§4) Spectra MAX GeminiXS Fluorescent Spectrometer of Molecular Device Co. was used at the excitation wavelength of 405 nm and the emission wavelength of […].

[2] = biological target: T2, caspase-1 (Homo sapiens, UniProt P29466); experiment: Caspase-1 inhibitory effect (fluorescent substrate AcYVAD-AFC); format: biochemical; conditions: pH 7.5; 25° C., 50 μM AcYVAD-AFC, 10 nM caspase-1; read-out: Caspase-1 Kobs/[I] (converted)
T2 construct: p10 and p20 subunits (Thornberry, N. A. et al, Nature, 1992, 356, 768) were expressed in E. coli; made in house; host or cells: E. coli
T2 sequence (P29466 120-297 limits assumed): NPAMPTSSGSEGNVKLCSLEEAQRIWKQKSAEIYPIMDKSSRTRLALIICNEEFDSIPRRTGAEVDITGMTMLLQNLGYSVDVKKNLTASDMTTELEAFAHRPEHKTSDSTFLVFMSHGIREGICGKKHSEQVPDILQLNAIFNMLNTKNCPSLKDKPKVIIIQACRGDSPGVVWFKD
T2 sequence (P29466 317-404 limits assumed): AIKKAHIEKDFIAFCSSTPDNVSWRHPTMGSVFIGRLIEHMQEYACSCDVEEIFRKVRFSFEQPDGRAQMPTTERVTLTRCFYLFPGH
Method: as §1, §2, §3, §4

[3] = tested on: Jurkat cell (ATCC TIB-152); experiment: Jurkat cell apoptosis by Fas antibody, WST-1 method; format: cell-based; conditions: Homo sapiens, Jurkat, apoptosis using Fas antibody, WST-1
Method: The […] inhibitory activity of the inhibitors was determined by subjecting Jurkat cell (ATCC TIB-152) to apoptosis using Fas antibody (Upstate Biotech 05-201) and by detecting the color change according to the WST-1 method known in Francoeur A. M. and Assalian A. (1996) Biochemica 3, 19-25 to observe the amount of alive Jurkat cells when the cells were treated by the inhibitor. Spectra MAX 340 Spectrometer of Molecular Device Co. was used at the absorbance wavelength of 440 nm.

[4] = biological target: T3, caspase-9 (Homo sapiens, UniProt P55211); experiment: Caspase-9 inhibitory effect (fluorescent substrate AcLEHD-AFC); format: biochemical; conditions: pH 7.5; 25° C., 150 μM AcLEHD-AFC, 200 nM caspase-9; read-out: Caspase-9 Kobs/[I] (converted)
T3 construct: p10 and p20 subunits (Thornberry, N. A. et al, Nature, 1992, 356, 768) were expressed in E. coli; made in house; host or cells: E. coli
T3 sequence (P55211 1-315 limits assumed): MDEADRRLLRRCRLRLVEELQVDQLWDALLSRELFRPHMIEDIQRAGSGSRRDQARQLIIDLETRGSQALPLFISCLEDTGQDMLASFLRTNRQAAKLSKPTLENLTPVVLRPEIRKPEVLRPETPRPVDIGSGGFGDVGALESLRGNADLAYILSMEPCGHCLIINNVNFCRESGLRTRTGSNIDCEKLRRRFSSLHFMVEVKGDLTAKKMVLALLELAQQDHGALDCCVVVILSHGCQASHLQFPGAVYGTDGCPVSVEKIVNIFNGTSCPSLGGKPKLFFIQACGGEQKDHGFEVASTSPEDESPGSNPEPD
T3 sequence (P55211 331-416 limits assumed): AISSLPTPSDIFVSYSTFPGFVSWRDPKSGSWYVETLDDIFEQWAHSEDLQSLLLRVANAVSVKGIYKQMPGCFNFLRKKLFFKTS
Method: as §1, with “The enzyme reaction was carried out at 25° C. with various concentrations of the inhibitors in a buffer solution containing 50 mM HEPES(pH 7.50), 10% (w/v) sucrose, 0.1% (w/v) CHAPS, 100 mM NaCl, 1 mM EDTA, and 10 mM DTT in the presence of 50 μM AcYVAD-AFC for 10 nM caspase-1, 50 μM AcDEVD-AFC for 2.1 nM caspase-8, and 150 μM AcLEHD-AFC for 200 nM caspase-9.” left out, “Kobs=−ln(1−At/Aoo)/t Equation 1” left out

SMILES	kinact/KI [1] [M⁻¹ s⁻¹]	kinact/KI [2] [M⁻¹ s⁻¹]	IC50 [3] [µM]	kinact/KI [4] [M⁻¹ s⁻¹]
CCC1(C(=O)N[C@@H](CC(=O)O)C(=O)COc2c(F)c(F)cc(F)c2F)CC(c2ccccc2)=NO1 (stereo partly drawn) [Icc, (3S)-3-{[(5-ethyl-3-phenyl-4,5-dihydro-5-isoxazolyl)carbonyl]amino}-4-oxo-5-(2,3,5,6-tetrafluorophenoxy)pentanoic acid]	550	3170	22.5	–
CCC1(C(=O)N[C@@H](CC(=O)O)C(=O)COc2c(F)c(F)cc(F)c2F)CC(c2cccc3ccccc23)=NO1 (stereo partly drawn) [Idd, (3S)-3-({[5-ethyl-3-(1-naphthyl)-4,5-dihydro-5-isoxazolyl]carbonyl}amino)-4-oxo-5-(2,3,5,6-tetrafluorophenoxy)pentanoic Acid]	3170	5170	4.25	–
CCC1(C(=O)NC(CC(=O)O)C(=O)CF)CC(c2nccc3ccccc23)=NO1 (stereo not shown) [Igg, 3-({[5-Ethyl-3-(1-isoquinolinyl)-4,5-dihydro-5-isoxazolyl]carbonyl}amino)-5-fluoro-4-oxopentanoic acid]	25000	45000	0.17	5330
CCC1(C(=O)N[C@@H](CC(=O)O)C(=O)COc2c(F)c(F)cc(F)c2F)CC(COc2cccc3ccccc23)=NO1 (stereo partly drawn) [Ipp, (3S)-3-[({5-Ethyl-3-[(1-naphthyloxy)methyl]-4,5-dihydro-5-isoxazolyl]carbonyl)amino]-4-oxo-5-(2,3,5,6-tetrafluorophenoxy)pentanoic acid]	2830	38300	3.5	–
CCC1(C(=O)N[C@@H](CC(=O)O)C(=O)COc2c(F)c(F)cc(F)c2F)CC(COc2ccc(Cl)c3ccccc23)=NO1 (stereo partly drawn) [Iqq, (3S)-3-{[(3-{[(4-Chloro-1-naphthyl)oxy]methyl}-5-ethyl-4,5-dihydro-5-isoxazolyl)carbonyl]amino}-4-oxo-5-(2,3,5,6-tetrafluorophenoxy)pentanoic acid]	2330	55000	37	–
